pIC50: −log10 of the molar value.
What was measured:
[1] = target: Calcium/calmodulin-dependent protein kinase type IV (Homo sapiens, UniProt Q16566); assay: Inhibition of recombinant full length human CaMK4 using calmodulin as substrate incubated for 40 mins in presence of [gamma-33ATP] by radiometric scintillation counting analysis
[2] = Inhibition of recombinant human MER H628Q/R794A double mutant (557 to 882 residues) using KKLNRTLSFAEPG as substrate incubated for 40 mins in presence of [gamma-33ATP by radiometric scintillation counting analysis
[3] = target: Fibroblast growth factor receptor 2 (Homo sapiens, UniProt P21802); assay: Inhibition of recombinant human FGFR2 (456 to 770 residues) using poly(Glu, Tyr) 4:1 as substrate after 40 mins in presence of [gamma-33ATP] by radiometric scintillation counting analysis
[4] = target: Cyclin-dependent kinase-like 2 (Homo sapiens, UniProt Q92772); assay: Inhibition of recombinant full length human CDKL2 in presence of 10 uM ATP by radiometric scintillation counting analysis
[5] = target: Serine/threonine-protein kinase Nek11 (Homo sapiens, UniProt Q8NG66); assay: Inhibition of recombinant full length human NEK11 using myelin basic protein as substrate measured after 40 mins in presence of [gamma33P]ATP by radiometric scintillation counting analysis
[6] = target: Serine/threonine-protein kinase haspin (Homo sapiens, UniProt Q8TF76); assay: Inhibition of human recombinant Haspin (471 to end residues) using RARTLSFAEPG as substrate after 40 mins by [gamma-33ATP] radiometric assay
[7] = target: Testis-specific serine/threonine-protein kinase 4 (Homo sapiens, UniProt Q6SA08); assay: Inhibition of recombinant full-length human TSSK4 using KKLNRTLSFAEPG as substrate incubated for 40 mins in presence of [gamma33P]ATP by radiometric scintillation counting analysis
[8] = target: Tyrosine-protein kinase JAK2 (Homo sapiens, UniProt O60674); assay: Inhibition of human recombinant JAK2 (808 to end residues) using KTFCGTPEYLAPE as substrate after 40 mins by [gamma-33ATP] by radiometric scintillation counting analysis
[9] = target: Hepatocyte growth factor receptor (Homo sapiens, UniProt P08581, A1209G/V1290L); assay: Inhibition of recombinant human MET A1209G/V1290L double mutant (974 to end residues) using KKKGQEEEYVFIE as substrate incubated for 40 mins in presence of [gamma-33ATP by radiometric scintillation counting analysis
[10] = target: Serine/threonine-protein kinase Chk1 (Homo sapiens, UniProt O14757); assay: Inhibition of recombinant full length human CHK1 using KKKVSRSGLYRSP as substrate incubated for 40 mins in presence of [gamma-33ATP] by radiometric scintillation counting analysis
[11] = target: Platelet-derived growth factor receptor alpha (Homo sapiens, UniProt P16234, D842V); assay: Inhibition of human PDGFRalpha D842V mutant (550 to end residues) using GGMEDIYFEFMGG as substrate measured after 40 mins in presence of [gamma33P]ATP by radiometric scintillation counting analysis
[12] = target: Mitogen-activated protein kinase kinase kinase 10 (Homo sapiens, UniProt Q02779); assay: Inhibition of recombinant human MLK2 (1 to 499 residues) using myelin basic protein as substrate incubated for 40 mins in presence of [gamma-33ATP by radiometric scintillation counting analysis
[13] = Inhibition of recombinant human MARK1 V16E/T20S double mutant (2 to end residues) using KKKVSRSGLYRSP as substrate incubated for 40 mins in presence of [gamma-33ATP by radiometric scintillation counting analysis
[14] = target: Tyrosine-protein kinase ABL1 (Homo sapiens, UniProt P00519, Q252H); assay: Inhibition of human recombinant ABL1 Q252H mutant (27 to end residues) using EAIYAAPFAKKK as substrate incubated for 40 mins in presence of [gamma-33P]ATP by radiometric scintillation counting analysis
[15] = target: [Pyruvate dehydrogenase (acetyl-transferring)] kinase isozyme 4, mitochondrial (Homo sapiens, UniProt Q16654); assay: Inhibition of recombinant human full length PDHK4 using KKKYHGHSMSDPG as substrate incubated for 40 mins in presence of [gamma33P]ATP by radiometric scintillation counting analysis
[16] = target: Hepatocyte growth factor receptor (Homo sapiens, UniProt P08581, M1250T); assay: Inhibition of recombinant human MET A1209G/V1290L/M1268T triple mutant (974 to end residues) using KKKGQEEEYVFIE as substrate incubated for 40 mins in presence of [gamma-33ATP by radiometric scintillation counting analysis
[17] = target: Serine/threonine-protein kinase 32B (Homo sapiens, UniProt Q9NY57); assay: Inhibition of recombinant human full length STK32B using casein as substrate incubated for 40 mins in presence of [gamma33P]ATP by radiometric scintillation counting analysis
Ephrin type-B receptor 4 = Ephrin type-B receptor 4 (Homo sapiens, UniProt P54760); assay: Inhibition of recombinant human EphB4 (561 to end residues) using poly(Glu, Tyr) 4:1 as substrate after 40 mins in presence of [gamma-33ATP] by radiometric scintillation counting analysis
[18] = target: Epidermal growth factor receptor (Homo sapiens, UniProt P00533, L858R/T790M); assay: Inhibition of recombinant human EGFR T790M/L858R double mutant (696 to end residues) using poly(Glu, Tyr) 4:1 as substrate after 40 mins in presence of [gamma-33ATP] by radiometric scintillation counting analysis
SRSF protein kinase 1 = SRSF protein kinase 1 (Homo sapiens, UniProt Q96SB4); assay: Inhibition of recombinant human SRPK1 (2 to end residues) using RSRSRSRSRSRSRSR as substrate incubated for 40 mins in presence of [gamma33P]ATP by radiometric scintillation counting analysis
[19] = target: Ribosomal protein S6 kinase alpha-1 (Homo sapiens, UniProt Q15418); assay: Inhibition of recombinant full length human Rsk1 using KKKNRTLSVA as substrate incubated for 40 mins in presence of [gamma33P]ATP by radiometric scintillation counting analysis
[20] = target: Serine/threonine-protein kinase STK11 (Homo sapiens, UniProt Q15831); assay: Inhibition of recombinant full length human LKB1 using LSNLYHQGKFLQT as substrate after 40 mins in presence of [gamma-33ATP] by radiometric scintillation counting analysis
Ephrin type-A receptor 5 = Ephrin type-A receptor 5 (Homo sapiens, UniProt P54756); assay: Inhibition of recombinant human EphA5 (655 to 956 residues) using poly(Glu, Tyr) 4:1 as substrate measured after 40 mins in presence of [gamma33ATP] by radiometric scintillation counting analysis
[21] = target: PI3-kinase p110-alpha/p85-alpha (Homo sapiens, UniProt P42336, E545K); assay: Inhibition of recombinant human full length PI3K p110alpha/p85alpha E545K mutant using phosphatidylinositol 4,5-bisphosphate as substrate incubated for 40 mins in presence of [gamma33P]ATP by radiometric scintillation counting analysis; format: protein-complex assay
PI3K p110 beta/p85 alpha = PI3K p110 beta/p85 alpha (Homo sapiens, UniProt P42338); assay: Inhibition of recombinant human full length PI3K p110beta/p85alpha using phosphatidylinositol-4, 5-bisphosphate as substrate incubated for 40 mins in presence of [gamma33P]ATP by radiometric scintillation counting analysis; format: protein-complex assay

Measured: pIC50

Sequence of Serine/threonine-protein kinase 32B (Q9NY57 whole entry): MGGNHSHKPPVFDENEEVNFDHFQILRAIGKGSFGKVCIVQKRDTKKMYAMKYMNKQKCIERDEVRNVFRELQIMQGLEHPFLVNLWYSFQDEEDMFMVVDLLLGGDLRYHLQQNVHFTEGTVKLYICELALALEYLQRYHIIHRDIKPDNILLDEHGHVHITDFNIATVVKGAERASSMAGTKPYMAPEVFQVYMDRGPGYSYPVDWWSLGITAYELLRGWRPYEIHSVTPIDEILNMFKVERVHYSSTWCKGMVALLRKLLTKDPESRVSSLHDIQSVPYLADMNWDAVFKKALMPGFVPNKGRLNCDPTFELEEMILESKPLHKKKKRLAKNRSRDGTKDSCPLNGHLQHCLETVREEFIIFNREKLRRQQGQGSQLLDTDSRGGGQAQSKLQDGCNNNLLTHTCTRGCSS
Sequence of Epidermal growth factor receptor (P00533 25-1210 T790M/L858R limits assumed): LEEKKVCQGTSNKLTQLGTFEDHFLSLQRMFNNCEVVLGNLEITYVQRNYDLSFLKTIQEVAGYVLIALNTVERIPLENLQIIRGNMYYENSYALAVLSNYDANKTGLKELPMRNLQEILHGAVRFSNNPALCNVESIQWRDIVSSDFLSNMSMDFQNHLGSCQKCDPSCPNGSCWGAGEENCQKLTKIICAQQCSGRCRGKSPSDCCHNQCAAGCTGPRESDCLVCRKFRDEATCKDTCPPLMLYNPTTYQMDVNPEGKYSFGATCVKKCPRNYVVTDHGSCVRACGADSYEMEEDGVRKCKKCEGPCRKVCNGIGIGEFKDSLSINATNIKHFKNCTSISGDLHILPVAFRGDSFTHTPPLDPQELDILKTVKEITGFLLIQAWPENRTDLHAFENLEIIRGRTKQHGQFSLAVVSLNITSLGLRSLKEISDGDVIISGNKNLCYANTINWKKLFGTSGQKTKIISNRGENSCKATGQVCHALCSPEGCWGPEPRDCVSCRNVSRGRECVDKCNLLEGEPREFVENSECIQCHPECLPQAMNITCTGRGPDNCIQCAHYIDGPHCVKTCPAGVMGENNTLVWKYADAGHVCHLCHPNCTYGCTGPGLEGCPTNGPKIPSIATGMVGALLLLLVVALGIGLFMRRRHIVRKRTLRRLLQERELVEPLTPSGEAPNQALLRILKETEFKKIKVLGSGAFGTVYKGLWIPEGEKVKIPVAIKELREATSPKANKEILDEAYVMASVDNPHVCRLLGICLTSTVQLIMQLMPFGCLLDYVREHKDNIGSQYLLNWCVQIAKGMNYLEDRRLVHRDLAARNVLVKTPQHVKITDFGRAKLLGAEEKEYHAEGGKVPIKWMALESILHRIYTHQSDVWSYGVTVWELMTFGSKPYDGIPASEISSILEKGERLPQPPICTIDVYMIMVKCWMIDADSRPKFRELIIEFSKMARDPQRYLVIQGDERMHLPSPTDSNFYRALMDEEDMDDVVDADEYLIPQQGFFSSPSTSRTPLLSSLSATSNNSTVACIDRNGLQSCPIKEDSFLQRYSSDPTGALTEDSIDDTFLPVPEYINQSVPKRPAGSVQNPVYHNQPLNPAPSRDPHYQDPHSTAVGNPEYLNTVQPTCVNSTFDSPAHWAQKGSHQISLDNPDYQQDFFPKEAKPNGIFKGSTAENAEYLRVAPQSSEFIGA
Sequence of Serine/threonine-protein kinase Chk1 (O14757 whole entry): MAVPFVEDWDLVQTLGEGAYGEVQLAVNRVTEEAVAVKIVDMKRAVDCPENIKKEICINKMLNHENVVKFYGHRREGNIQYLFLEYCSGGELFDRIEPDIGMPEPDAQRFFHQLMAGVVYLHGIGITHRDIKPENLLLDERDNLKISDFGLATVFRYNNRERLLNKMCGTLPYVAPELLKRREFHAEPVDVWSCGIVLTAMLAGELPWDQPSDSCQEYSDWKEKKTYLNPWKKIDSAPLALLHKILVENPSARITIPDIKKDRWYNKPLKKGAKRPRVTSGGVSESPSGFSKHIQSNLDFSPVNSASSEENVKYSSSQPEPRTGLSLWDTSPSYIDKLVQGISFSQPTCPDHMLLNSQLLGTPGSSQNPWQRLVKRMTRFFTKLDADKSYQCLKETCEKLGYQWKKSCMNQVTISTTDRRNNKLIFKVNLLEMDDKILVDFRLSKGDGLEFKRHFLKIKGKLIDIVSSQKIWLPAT
Sequence of PI3-kinase p110-alpha/p85-alpha (P42336 whole entry E545K, looked up): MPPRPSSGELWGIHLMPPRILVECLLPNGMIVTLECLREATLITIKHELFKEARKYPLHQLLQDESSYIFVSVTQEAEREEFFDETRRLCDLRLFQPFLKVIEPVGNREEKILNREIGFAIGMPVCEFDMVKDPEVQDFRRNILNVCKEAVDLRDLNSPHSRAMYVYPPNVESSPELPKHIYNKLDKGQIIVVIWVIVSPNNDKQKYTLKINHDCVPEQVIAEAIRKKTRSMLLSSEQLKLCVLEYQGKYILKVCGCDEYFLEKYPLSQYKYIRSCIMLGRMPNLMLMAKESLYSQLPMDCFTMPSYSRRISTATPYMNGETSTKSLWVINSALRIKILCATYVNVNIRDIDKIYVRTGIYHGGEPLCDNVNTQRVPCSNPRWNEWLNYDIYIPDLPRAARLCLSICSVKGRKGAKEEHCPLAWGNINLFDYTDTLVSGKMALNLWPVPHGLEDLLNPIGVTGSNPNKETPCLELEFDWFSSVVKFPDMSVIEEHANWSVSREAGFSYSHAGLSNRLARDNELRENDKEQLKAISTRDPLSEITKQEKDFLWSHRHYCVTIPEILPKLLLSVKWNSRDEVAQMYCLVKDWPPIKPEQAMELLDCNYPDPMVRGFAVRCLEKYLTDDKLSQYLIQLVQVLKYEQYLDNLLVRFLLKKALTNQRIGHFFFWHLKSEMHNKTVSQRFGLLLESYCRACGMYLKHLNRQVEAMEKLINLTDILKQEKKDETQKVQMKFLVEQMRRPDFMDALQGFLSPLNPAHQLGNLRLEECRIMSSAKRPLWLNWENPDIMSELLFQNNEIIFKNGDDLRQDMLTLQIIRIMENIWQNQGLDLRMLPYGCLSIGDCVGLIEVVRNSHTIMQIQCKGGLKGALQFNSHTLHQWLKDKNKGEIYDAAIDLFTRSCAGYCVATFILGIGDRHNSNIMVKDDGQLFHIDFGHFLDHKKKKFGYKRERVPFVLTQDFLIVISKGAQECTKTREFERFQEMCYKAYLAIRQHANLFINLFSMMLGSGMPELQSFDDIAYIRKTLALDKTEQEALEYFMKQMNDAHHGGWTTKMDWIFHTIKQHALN
Sequence of Serine/threonine-protein kinase haspin (Q8TF76 whole entry): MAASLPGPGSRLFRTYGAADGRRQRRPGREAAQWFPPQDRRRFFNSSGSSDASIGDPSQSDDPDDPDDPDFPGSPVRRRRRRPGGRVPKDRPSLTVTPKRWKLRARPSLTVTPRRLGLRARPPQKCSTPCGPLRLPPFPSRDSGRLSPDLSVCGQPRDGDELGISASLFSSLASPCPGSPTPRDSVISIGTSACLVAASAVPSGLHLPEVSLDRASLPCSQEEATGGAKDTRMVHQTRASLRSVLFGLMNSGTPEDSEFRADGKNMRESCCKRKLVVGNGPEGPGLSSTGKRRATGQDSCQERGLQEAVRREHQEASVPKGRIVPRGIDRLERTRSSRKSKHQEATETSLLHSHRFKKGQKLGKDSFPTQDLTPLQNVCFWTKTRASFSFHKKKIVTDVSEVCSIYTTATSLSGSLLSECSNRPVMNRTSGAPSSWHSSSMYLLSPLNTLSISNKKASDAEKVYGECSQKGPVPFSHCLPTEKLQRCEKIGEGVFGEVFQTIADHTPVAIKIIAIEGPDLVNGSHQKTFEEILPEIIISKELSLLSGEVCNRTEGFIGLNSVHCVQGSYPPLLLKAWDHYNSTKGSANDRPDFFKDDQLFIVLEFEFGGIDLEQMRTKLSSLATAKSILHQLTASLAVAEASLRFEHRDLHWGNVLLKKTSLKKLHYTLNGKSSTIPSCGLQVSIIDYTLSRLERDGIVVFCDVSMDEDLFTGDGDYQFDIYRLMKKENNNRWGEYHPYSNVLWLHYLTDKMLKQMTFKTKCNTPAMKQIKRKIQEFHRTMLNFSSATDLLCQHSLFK
Sequence of Calcium/calmodulin-dependent protein kinase type IV (Q16566 whole entry, the tested form may be a part): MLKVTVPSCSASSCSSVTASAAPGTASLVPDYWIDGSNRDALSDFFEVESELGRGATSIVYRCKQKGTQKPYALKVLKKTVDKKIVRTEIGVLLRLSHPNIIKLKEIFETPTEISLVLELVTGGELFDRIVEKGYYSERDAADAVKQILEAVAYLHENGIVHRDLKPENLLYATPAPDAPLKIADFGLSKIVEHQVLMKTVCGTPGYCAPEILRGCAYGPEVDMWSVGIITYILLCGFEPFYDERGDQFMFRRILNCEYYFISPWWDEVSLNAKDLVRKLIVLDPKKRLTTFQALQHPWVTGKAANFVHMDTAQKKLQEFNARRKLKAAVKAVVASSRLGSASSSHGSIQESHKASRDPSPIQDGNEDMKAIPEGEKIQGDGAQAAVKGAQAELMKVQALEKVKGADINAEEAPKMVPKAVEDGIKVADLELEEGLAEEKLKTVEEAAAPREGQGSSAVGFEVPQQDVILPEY
Sequence of Cyclin-dependent kinase-like 2 (Q92772 whole entry): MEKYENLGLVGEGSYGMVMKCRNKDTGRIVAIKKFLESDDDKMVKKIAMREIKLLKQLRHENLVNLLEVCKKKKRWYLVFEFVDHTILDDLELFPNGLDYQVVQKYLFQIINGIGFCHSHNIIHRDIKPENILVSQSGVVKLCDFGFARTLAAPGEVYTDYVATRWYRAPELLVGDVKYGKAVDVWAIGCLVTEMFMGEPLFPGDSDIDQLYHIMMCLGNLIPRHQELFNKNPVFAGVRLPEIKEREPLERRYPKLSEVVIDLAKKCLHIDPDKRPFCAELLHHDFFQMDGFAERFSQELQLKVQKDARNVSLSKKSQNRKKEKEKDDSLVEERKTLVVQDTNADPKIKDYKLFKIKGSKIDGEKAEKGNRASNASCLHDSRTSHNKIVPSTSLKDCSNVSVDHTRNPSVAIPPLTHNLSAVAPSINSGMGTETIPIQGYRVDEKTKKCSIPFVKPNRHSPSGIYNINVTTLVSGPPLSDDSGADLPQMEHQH

CN(C)c1ccc(C(=O)Nc2cccc(NC(=O)COc3ccc4c(=O)ccoc4c3)c2)cc1
< 5.00: [1] | [2] | [3] | [4] | [5] | [6] | [7] | [8] | [9] | [10] | [11] | [12] | [13] | [14] | [15] | [16] | [17] | Ephrin type-B receptor 4 | [18] | SRSF protein kinase 1 | [19] | [20] | Ephrin type-A receptor 5 | [21] | PI3K p110 beta/p85 alpha
